In patent publication US20130288989A1, “NEW USE OF CHEMICAL INGREDIENTS IN CYNOMORIUM AS PHYTOESTROGEN” (TIANJIN UNIVERSITY OF TRADITIONAL CHINESE MEDICINE, priority 2010, published 2013):
Entries after “also recorded” stand apart in the source; their conditions may differ.

Columns and labels:
Type in all cases: cell-based
estrogen receptor = assay: Estrogen receptor activation test: overall estrogen activity and ERβ versus ERα comparison; settings: for ERβ/ERα (both % of estradiol at 10^−8M): Hela cells
Procedure: (§1) Actually, estrogens show their biological activity by regulating estrogen responding genetic transcription.
(§2) Under condition of 37° C. and 5% CO2, Hela cells were cultured in phenol red-free high sugar DMEM culture medium containing 10% calf serum in incubator, the cells were spread in 60% density on 96-well plate when cell density was about 90%, each well was added with 150 ul of phenol red-free DMEM culture medium containing 10% serum, cultivation was performed overnight. To each well of the 96-well plate, 100 ul of serum-free DMEM culture medium and 0.4 μg plasmid (ptk-ERE-luc 2 μg, tk-Renila 1 μg, ERα or ERβ 1 μg) were used for transfection. After 6 h of transfection, each well was added with 150 ul of serum-free phenol red-free DMEM culture medium. Three wells were selected form each group, added with 10^−8M estradiol E2, and substance to be tested in different concentrations, 15 ul/well (sample 4-5 concentration gradient groups), continuously cultured under condition of 37° C., 5% CO2 for 24 h. After 24 h, each well was added with 80 μl of cell disruption solution, and the cells were subjected to freeze thawing once to be sufficiently disrupted. As for the cell lysis solution of each well, its activities to firefly luciferase and Renila luciferase were separately measured.

ERα = target: T1, ERα (Homo sapiens, UniProt P03372); assay: ERα luciferase reporter gene transcription activation in transfected Hela cells; settings: for ERα (% of the control) mean ± S.D. / ERα (% of estradiol): Hela cells; for ERα (% of the control) mean ± S.D.: 24 h; for ERα (% of estradiol): estradiol at 10^−8M
T1 construct: expressed in transfected cells; host or cells: Hela cells (ER expression free)
T1 sequence (P03372 1-595): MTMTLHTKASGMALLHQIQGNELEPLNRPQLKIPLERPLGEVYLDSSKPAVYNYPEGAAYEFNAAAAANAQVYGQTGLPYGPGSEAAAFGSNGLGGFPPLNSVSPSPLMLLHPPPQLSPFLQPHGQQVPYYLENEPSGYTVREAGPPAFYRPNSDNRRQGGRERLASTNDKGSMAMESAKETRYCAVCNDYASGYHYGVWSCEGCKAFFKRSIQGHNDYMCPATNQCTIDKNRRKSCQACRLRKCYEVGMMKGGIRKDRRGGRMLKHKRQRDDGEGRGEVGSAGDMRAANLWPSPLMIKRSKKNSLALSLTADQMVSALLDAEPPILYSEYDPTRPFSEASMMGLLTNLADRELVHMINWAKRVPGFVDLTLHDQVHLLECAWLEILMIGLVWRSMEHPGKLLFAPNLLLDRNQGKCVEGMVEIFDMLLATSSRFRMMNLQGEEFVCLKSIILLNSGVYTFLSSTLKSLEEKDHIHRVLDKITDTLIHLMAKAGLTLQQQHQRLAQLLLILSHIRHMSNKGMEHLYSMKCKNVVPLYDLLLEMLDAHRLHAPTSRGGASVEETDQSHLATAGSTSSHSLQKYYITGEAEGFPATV
From the text: as §1
(§3) Formulation of sample solutions of catechin, (−)epicatechin-3-O-gallate, naringenin-4′-O-glucoside, phlorizin, emodin, chrysophanol (separately obtained from Example 1):
(§4) Catechin, (−)epicatechin-3-O-gallate, naringenin-4′-O-glucoside, phlorizin, emodin, chrysophanol in corresponding weights were separately weighed precisely, than added with DMSO for dissolution, the corresponding sample solution high dose groups (10 μM or 1 μM), were diluted in certain times to separately obtain low dose groups (1 μM to 0.001 μM).
as §2

ERβ = target: T2, ERβ (Homo sapiens, UniProt Q92731); assay: ERβ luciferase reporter gene transcription activation in transfected Hela cells; settings: for ERβ (% of the control) mean ± S.D. / ERβ (% of estradiol): Hela cells; for ERβ (% of the control) mean ± S.D.: 24 h; for ERβ (% of estradiol): estradiol at 10^−8M
T2 construct: expressed in transfected cells; host or cells: Hela cells (ER expression free)
T2 sequence (Q92731 whole entry): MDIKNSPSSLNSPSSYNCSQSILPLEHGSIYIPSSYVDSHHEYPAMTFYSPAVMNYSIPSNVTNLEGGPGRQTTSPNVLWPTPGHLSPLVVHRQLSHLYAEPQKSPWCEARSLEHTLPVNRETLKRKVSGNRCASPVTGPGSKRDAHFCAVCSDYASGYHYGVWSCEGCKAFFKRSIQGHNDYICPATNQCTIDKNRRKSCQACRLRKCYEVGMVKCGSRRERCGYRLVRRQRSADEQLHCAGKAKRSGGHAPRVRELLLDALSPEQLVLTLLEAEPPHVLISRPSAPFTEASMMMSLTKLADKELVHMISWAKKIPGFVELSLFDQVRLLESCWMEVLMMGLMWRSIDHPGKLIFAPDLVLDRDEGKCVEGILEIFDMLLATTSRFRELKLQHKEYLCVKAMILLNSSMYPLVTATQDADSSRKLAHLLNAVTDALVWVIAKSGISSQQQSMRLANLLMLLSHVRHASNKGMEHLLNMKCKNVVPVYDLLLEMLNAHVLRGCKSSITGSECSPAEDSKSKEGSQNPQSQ
From the text: as §1, §3, §4, §2

| SMILES | ERβ/ERα (both % of estradiol at 10^−8M) (estrogen receptor; sample 10^−6 M) | ERβ/ERα (both % of estradiol at 10^−8M) (estrogen receptor; sample 10^−7 M) | ERβ/ERα (both % of estradiol at 10^−8M) (estrogen receptor; sample 10^−8 M) | ERα (% of the control) mean ± S.D. (ERα; 10^−6 M) | ERα (% of estradiol) (ERα; 10^−6 M) | ERα (% of the control) mean ± S.D. (ERα; 10^−7 M) | ERα (% of estradiol) (ERα; 10^−7 M) | ERα (% of the control) mean ± S.D. (ERα; 10^−8 M) | ERα (% of estradiol) (ERα; 10^−8 M) | ERβ (% of the control) mean ± S.D. (ERβ; 10^−6 M) | ERβ (% of estradiol) (ERβ; 10^−6 M) | ERβ (% of the control) mean ± S.D. (ERβ; 10^−7 M) | ERβ (% of estradiol) (ERβ; 10^−7 M) | ERβ (% of the control) mean ± S.D. (ERβ; 10^−8 M) | ERβ (% of estradiol) (ERβ; 10^−8 M) | also measured |
| --- | --- | --- | --- | --- | --- | --- | --- | --- | --- | --- | --- | --- | --- | --- | --- | --- |
| Cc1cc(O)c2c(c1)C(=O)c1cccc(O)c1C2=O [Chrysophanol, chrysophanol] | 1.19 | 1.03 | 1.16 | 122.89 ± 8.94 % of the control | (51.51) % of estradiol | 97.77 ± 8.47 % of the control | (40.98) % of estradiol | 80.15 ± 13.88 % of the control | (33.59) % of estradiol | 120.43 ± 12.98 % of the control | (61.26) % of estradiol | 83.12 ± 4.78 % of the control | (42.28) % of estradiol | 76.85 ± 8.82 % of the control | (39.09) % of estradiol | ERβ/ERα (both % of estradiol at 10^−8M) (estrogen receptor; sample 10^−9 M): 1.25; ERα (% of the control) mean ± S.D. (ERα; 10^−9 M): 84.53 ± 14.21 % of the control; ERα (% of estradiol) (ERα; 10^−9 M): (35.43) % of estradiol; ERβ (% of the control) mean ± S.D. (ERβ; 10^−9 M): 86.99 ± 23.16 % of the control; ERβ (% of estradiol) (ERβ; 10^−9 M): (44.25) % of estradiol |
| O=C(CCc1ccc(O)cc1)c1c(O)cc(O)cc1O[C@@H]1O[C@H](CO)[C@@H](O)[C@H](O)[C@H]1O [Phlorizin, phlorizin] | 1.13 | 1.01 | 1.07 | 122.09 ± 11.33 % of the control | (64.17) % of estradiol | 118.40 ± 4.20 % of the control | (62.23) % of estradiol | 105.43 ± 13.57 % of the control | (55.41) % of estradiol | 133.79 ± 5.45 % of the control | (72.50) % of estradiol | 116.14 ± 8.86 % of the control | (62.93) % of estradiol | 109.38 ± 8.72 % of the control | (59.27) % of estradiol | ERβ/ERα (both % of estradiol at 10^−8M) (estrogen receptor; sample 10^−5 M): 1.11; estrogen activity / estrogen receptor activation (in words) (estrogen receptor; estradiol as positive control): show relevance to estrogen receptor activation; also recorded: potent activity of estrogen; selectivity to receptor subtypes (ERα vs ERβ) (estrogen receptor; result in words): no significant selectivity to receptor subtypes; ERα (% of the control) mean ± S.D. (ERα; 10^−5 M): 137.71 ± 8.44 % of the control; ERα (% of estradiol) (ERα; 10^−5 M): (72.38) % of estradiol; concentration at which the transcriptional activity of ERα is agonized (ERα; luciferase reporter gene): 10^−6-10^−5 M; ERβ (% of the control) mean ± S.D. (ERβ; 10^−5 M): 147.95 ± 10.29 % of the control; ERβ (% of estradiol) (ERβ; 10^−5 M): (80.17) % of estradiol; concentration at which the transcriptional activity of ERβ is agonized (ERβ; luciferase reporter gene): 10^−6-10^−5 M |
